Blank lines part the entries; values can stand above or below the compound they belong to.
Experiments:
[1] = tested on: P27 (DD aptagel) (DNA, aptamer) CGACCGAGGGTACCGCAATAGTACTTA/TTGTTCGCCTATTGTGGGTCGGGTCG; assay: angular SPR of hydrogel film; conditions: PBS, 2 mM Mg2+, 200-fold diluted rat plasma, 37 °C
[2] = tested on: PolyA (PA) aptagel (DNA, single strand) AAAAAAAAAAAAAAAAAAAAAAAAAAA; assay: angular SPR of hydrogel film; conditions: PBS, 2 mM Mg2+; 37 °C; 1 mM vancomycin; 3 mM poly A, [ene]/[SH] 4
[3] = tested on: P27 (DD aptagel) (DNA, aptamer) CGACCGAGGGTACCGCAATAGTACTTA/TTGTTCGCCTATTGTGGGTCGGGTCG; assay: angular SPR of hydrogel film, dissociation phase fit; conditions: PBS, 2 mM Mg2+; pH 7.4, 37 °C; vancomycin below 50 µM; rises to 0.7 above 100 µM; apparent
[4] = tested on: P27.i (monolayer) (DNA, aptamer) CGACCGAGGGTACCGCAATAGTACTTA/TTGTTCGCCTATTGCGGGTCGGGTCG; assay: SPR, dissociation phase fit; conditions: PBS, 2 mM Mg2+, pH 7.4, 37 °C, split 2 in solution, independent of analyte concentration
[5] = tested on: P27 (monolayer) (DNA, aptamer) CGACCGAGGGTACCGCAATAGTACTTA/TTGTTCGCCTATTGTGGGTCGGGTCG; assay: SPR, dissociation phase fit; conditions: PBS, 2 mM Mg2+, pH 7.4, 37 °C, split 2 in solution, independent of analyte concentration
[6] = tested on: Full (full-length parent aptamer, aptagel) (DNA, aptamer) CGACCGAGGGTACCGCAATAGTACTTATTGTTCGCCTATTGTGGGTCGGGTCG; assay: angular SPR and QCM-D of hydrogel film; conditions: PBS, 2 mM Mg2+; 37 °C; 1 mM vancomycin; 1 mM aptamer; partly irreversible
[7] = tested on: P27 (MD aptagel) (DNA, aptamer) CGACCGAGGGTACCGCAATAGTACTTA/TTGTTCGCCTATTGTGGGTCGGGTCG; assay: angular SPR and QCM-D of hydrogel film; conditions: PBS, 2 mM Mg2+; 37 °C; 1 mM vancomycin; 1 mM aptamer; reversible
[8] = tested on: P27 (MM aptagel) (DNA, aptamer) CGACCGAGGGTACCGCAATAGTACTTA/TTGTTCGCCTATTGTGGGTCGGGTCG; assay: angular SPR and QCM-D of hydrogel film; conditions: PBS, 2 mM Mg2+; 37 °C; 1 mM vancomycin; 1 mM aptamer; reversible; smallest response
[9] = concentration matching refractive index of 10 µM vancomycin

binding [1, 9]: no
Structure (SMILES): CC1(C)S[C@@H]2[C@H](NC(=O)[C@H](N)c3ccccc3)C(=O)N2[C@H]1C(=O)O

binding [2]: no
koff [3]: ~ 0.2 min^-1
koff [4]: ~ 0.16 min^-1
koff [5]: 0.0033 s⁻¹
binding [6]: yes
binding [7]: yes
binding [8]: weak
Structure (SMILES): CN[C@H](CC(C)C)C(=O)N[C@H]1C(=O)N[C@@H](CC(N)=O)C(=O)N[C@H]2C(=O)N[C@H]3C(=O)N[C@H](C(=O)N[C@H](C(=O)O)c4cc(O)cc(O)c4-c4cc3ccc4O)[C@H](O)c3ccc(c(Cl)c3)Oc3cc2cc(c3O[C@@H]2O[C@H](CO)[C@@H](O)[C@H](O)[C@H]2O[C@H]2C[C@](C)(N)[C@H](O)[C@H](C)O2)Oc2ccc(cc2Cl)[C@H]1O

binding [1, 9]: no
Structure (SMILES): CO[C@H]1/C=C/O[C@@]2(C)Oc3c(C)c(O)c4c(O)c(c(/C=N/N5CCN(C)CC5)c(O)c4c3C2=O)NC(=O)/C(C)=C\C=C\[C@H](C)[C@H](O)[C@@H](C)[C@@H](O)[C@@H](C)[C@H](OC(C)=O)[C@@H]1C

binding ([1]; 80 µM glucose): no
Structure (SMILES): OC[C@H]1OC(O)[C@H](O)[C@@H](O)[C@@H]1O (stereo partly shown)

Reference: article PMC11969548 (2025)
